Reference: US10654834B2 (Venenum Biodesign, LLC, priority 2016, dated 2020)

What was measured:
human TGR5 receptor = target: T1, human TGR5 receptor (Homo sapiens, UniProt Q8TDU6); assay: Human TGR5 cAMP production assay (hTGR5-CHO cells, DiscoveRx cAMP XS+ kit); format: cell-based; settings: luminescent cAMP assay, read-out: Human TGR5 Lum. cAMP Activity (EC50)
T1 construct: host or cells: CHO-K1 (hTGR5-CHO)
T1 sequence (Q8TDU6 1-330): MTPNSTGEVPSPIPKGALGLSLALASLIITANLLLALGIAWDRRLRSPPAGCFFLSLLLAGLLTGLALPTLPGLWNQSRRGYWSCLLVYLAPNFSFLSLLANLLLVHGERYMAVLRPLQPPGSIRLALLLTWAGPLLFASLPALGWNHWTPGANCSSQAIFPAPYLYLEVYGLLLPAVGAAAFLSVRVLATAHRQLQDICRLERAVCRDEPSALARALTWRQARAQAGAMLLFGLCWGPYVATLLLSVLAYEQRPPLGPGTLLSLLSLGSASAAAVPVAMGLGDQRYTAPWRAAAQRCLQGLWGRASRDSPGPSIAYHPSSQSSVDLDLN
How it was run: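 CHO-K1 cells stably expressing hTGR5, in PBS with IBMX and cAMP antibody, treated with half-log compound dilutions for 1 h at room temperature. cAMP measured by enzyme-fragment complementation luminescence after overnight detection; EC50 values reported.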

mouse TGR5 receptor = target: T2, mouse TGR5 receptor (Mus musculus, UniProt Q80SS6); assay: Mouse TGR5 HTRF cAMP production assay (HEK293-EBNA cells, Cisbio cAMP HiRange kit); format: cell-based; settings: HEK293-EBNA cells overexpressing mouse TGR5, HTRF cAMP assay
T2 construct: host or cells: HEK293-EBNA (293 c18, ATCC CRL10852)
T2 sequence (Q80SS6 1-329): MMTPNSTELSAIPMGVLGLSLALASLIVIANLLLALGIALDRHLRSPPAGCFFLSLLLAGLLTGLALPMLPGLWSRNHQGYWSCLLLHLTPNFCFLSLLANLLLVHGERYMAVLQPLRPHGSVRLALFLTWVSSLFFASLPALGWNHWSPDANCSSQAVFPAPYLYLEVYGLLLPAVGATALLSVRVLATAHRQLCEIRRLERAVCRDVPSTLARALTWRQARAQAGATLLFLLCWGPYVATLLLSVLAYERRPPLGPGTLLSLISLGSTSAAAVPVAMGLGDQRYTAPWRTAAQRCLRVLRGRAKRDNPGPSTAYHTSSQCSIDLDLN
How it was run: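 HEK293-EBNA cells stably expressing mouse TGR5 (episomal vector) were suspended in serum-free DMEM with 500 μM IBMX and exposed to 12-point half-log compound dilutions for 1 h at room temperature. cAMP was detected by HTRF (d2-cAMP/anti-cAMP cryptate, 1 h, room temperature), giving EC50 from duplicates.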

SMILES	EC50 (human TGR5 receptor)	EC50 (mouse TGR5 receptor)
N#Cc1ccc(CCNC(=O)[C@@H]2CCCN2c2cc(N3CCC(CCCC(=O)NCCC(=O)O)CC3)nc(C(F)(F)F)n2)cc1 [Compound 104, (S)-3-(4-(1-(6-(2-((4-cyanophenethyl)carbamoyl)pyrrolidin-1-yl)-2-(trifluoromethyl)pyrimidin-4-yl)-piperidin-4-yl)butanamido)-propanoic acid]	< 100 nM	< 100 nM
N#Cc1ccc(CCNC(=O)[C@@H]2CCN2c2cc(N3CCC(CCNC(=O)NCS(=O)(=O)O)CC3)nc(C(F)(F)F)n2)cc1 [Compound 270, (S)-(3-(2-(1-(6-(2-((4-cyanophenethyl)carbamoyl)azetidin-1-yl)-2-(trifluoromethyl)pyrimidin-4-yl)piperidin-4-yl)ethyl)ureido)-methanesulfonic acid]	< 100 nM	< 100 nM
N#Cc1ccc(CCNC(=O)[C@@H]2CCN2c2cc(N3CCC(CCNc4c(NCC(=O)O)c(=O)c4=O)CC3)nc(C(F)(F)F)n2)cc1 [Compound 302, (S)-2-((2-((2-(1-(6-(2-((4-cyanophenethyl)carbamoyl)azetidin-1-yl)-2-(trifluoromethyl)pyrimidin-4-yl)piperidin-4-yl)ethyl)amino)-3,4-dioxocyclobut-1-en-1-yl)amino)acetic acid]	< 100 nM	< 100 nM
N#Cc1ccc(CCNC(=O)[C@@H]2CCN2c2cc(N3CCC(CCCC(=O)NCP(=O)(O)O)CC3)nc(C(F)(F)F)n2)cc1 [Compound 362, (S)-((4-(1-(6-(2-((4-cyanophenethyl)carbamoyl)azetidin-1-yl)-2-(trifluoromethyl)pyrimidin-4-yl)piperidin-4-yl)butanamido)methyl)phosphonic acid]	< 100 nM	< 100 nM
N#Cc1ccc(CCNC(=O)[C@@H]2CCCN2c2cc(N3CCC(CCCC(=O)NCCNC(=N)N)CC3)nc(C(F)(F)F)n2)cc1 [Compound 128, (S)-N-(4-cyanophenethyl)-1-(6-(4-(4-((2-guanidinoethyl)amino)-4-oxobutyl)piperidin-1-yl)-2-(trifluoromethyl)pyrimidin-4-yl)pyrrolidine-2-carboxamide]	< 100 nM	< 100 nM
N#Cc1ccc(CCNC(=O)[C@@H]2CCN2c2cc(N3CCC(CCNC(=O)NCCNC(=N)N)CC3)nc(C(F)(F)F)n2)cc1 [Compound 286, (S)-N-(4-cyanophenethyl)-1-(6-(4-(2-(3-(2-guanidinoethyl)-ureido)ethyl)piperidin-1-yl)-2-(trifluoromethyl)pyrimidin-4-yl)azetidine-2-carboxamide]	< 100 nM	< 100 nM
N#Cc1ccc(CCNC(=O)[C@@H]2CCCN2c2cc(-c3ccc(CCC(=O)NCS(=O)(=O)O)cc3)cc(C(F)(F)F)n2)cc1 [Compound 206, (S)-(3-(4-(2-(2-((4-cyanophenethyl)carbamoyl)pyrrolidin-1-yl)-6-(trifluoromethyl)pyridin-4-yl)phenyl)propanamido)methanesulfonic acid]	< 100 nM	< 100 nM
COc1cc(C(F)(F)F)ccc1CCNC(=O)[C@@H]1CCCN1c1cc(N2CCC(CCCC(=O)NCCS(=O)(=O)O)CC2)nc(C(F)(F)F)n1 [Compound 57, (S)-2-(4-(1-(6-(2-((2-methoxy-4-(trifluoromethyl)phenethyl)carbamoyl)-pyrrolidin-1-yl)-2-(trifluoromethyl)-pyrimidin-4-yl)piperidin-4-yl)butanamido)ethanesulfonic acid]	< 100 nM	< 100 nM
N#Cc1ccc(CCNC(=O)[C@@H]2CCCN2c2cc(N3CCC(CCNC(=O)NCP(=O)(O)O)CC3)nc(C(F)(F)F)n2)cc1 [Compound 372, (S)-((3-(2-(1-(6-(2-((4-cyanophenethyl)carbamoyl)pyrrolidin-1-yl)-2-(trifluoromethyl)pyrimidin-4-yl)piperidin-4-yl)ethyl)ureido)methyl)phosphonic acid]	< 100 nM	< 100 nM
N#Cc1ccc(CCNC(=O)[C@@H]2CCCN2c2cc(N3CCC(CCCC(=O)NCCS(=O)(=O)O)CC3)cc(C(F)(F)F)n2)cc1 [Compound 199, (S)-2-(4-(1-(2-(2-((4-cyanophenethyl)carbamoyl)pyrrolidin-1-yl)-6-(trifluoromethyl)pyridin-4-yl)piperidin-4-yl)butanamido)ethanesulfonic acid]	< 100 nM	< 100 nM
O=C(CCC1CCN(c2cc(N3CC[C@H]3C(=O)NCCc3ccc(C(F)(F)F)cc3)nc(C(F)(F)F)n2)CC1)NCS(=O)(=O)O [Compound 253, (S)-(3-(1-(2-(trifluoromethyl)-6-(2-((4-(trifluoromethyl)phenethyl)-carbamoyl)azetidin-1-yl)pyrimidin-4-yl)piperidin-4-yl)propanamido)-methanesulfonic acid]	< 100 nM	< 100 nM

Results, then the compound that gave them:

EC50 (human TGR5 receptor)	EC50 (mouse TGR5 receptor)	SMILES
< 100 nM	< 100 nM	N#Cc1ccc(CCNC(=O)[C@@H]2CCN2c2cc(N3CCC(CCCC(=O)NCCNC(=N)N)CC3)nc(C(F)(F)F)n2)cc1 [Compound 282, (S)—N-(4-cyanophenethyl)-1-(6-(4-(4-((2-guanidinoethyl)amino)-4-oxobutyl)piperidin-1-yl)-2-(trifluoromethyl)pyrimidin-4-yl)azetidine-2-carboxamide]
< 100 nM	< 100 nM	N#Cc1ccc(CCNC(=O)[C@@H]2CCN2c2cc(N3CCC(CCNS(=O)(=O)CCNC(=O)[C@@H](N)CS(=O)(=O)O)CC3)nc(C(F)(F)F)n2)cc1 [Compound 363, (R)-2-amino-3-((2-(N-(2-(1-(6-((S)-2-((4-cyanophenethyl)carbamoyl)azetidin-1-yl)-2-(trifluoromethyl)pyrimidin-4-yl)piperidin-4-yl)ethyl)sulfamoyl)ethyl)amino)-3-oxopropane-1-sulfonic acid]
< 100 nM	< 100 nM	N#Cc1ccc(CCNC(=O)[C@@H]2CCN2c2cc(N3CCC(CCCC(=O)NCCS(=O)(=O)O)CC3)nc(C(F)(F)F)n2)cc1 [Compound 249, (S)-2-(4-(1-(6-(2-((4-cyanophenethyl)carbamoyl)azetidin-1-yl)-2-(trifluoromethyl)pyrimidin-4-yl)piperidin-4-yl)butanamido)ethanesulfonic acid]
< 100 nM	< 100 nM	N#Cc1ccc(CCNC(=O)[C@@H]2CCCN2c2cc(N3CCC(CCNc4c(NCCS(=O)(=O)O)c(=O)c4=O)CC3)nc(C(F)(F)F)n2)cc1 [Compound 367, (S)-2-((2-((2-(1-(6-(2-((4-cyanophenethyl)carbamoyl)pyrrolidin-1-yl)-2-(trifluoromethyl)pyrimidin-4-yl)piperidin-4-yl)ethyl)amino)-3,4-dioxocyclobut-1-en-1-yl)amino)ethanesulfonic acid]
< 100 nM	< 100 nM	N#C/N=C(\NCCC(=O)O)NCCC1CCN(c2cc(N3CC[C@H]3C(=O)NCCc3ccc(C#N)cc3)nc(C(F)(F)F)n2)CC1 [Compound 351, (S,Z)-3-(2-cyano-3-(2-(1-(6-(2-((4-cyanophenethyl)carbamoyl)azetidin-1-yl)-2-(trifluoromethyl)pyrimidin-4-yl)piperidin-4-yl)ethyl)guanidino)propanoic acid]
< 100 nM	< 100 nM	N#Cc1ccc(CCNC(=O)[C@@H]2CCCN(c3cc(N4CCC(CCNC(=O)NCCC(=O)O)CC4)nc(C(F)(F)F)n3)C2)cc1 [Compound 347, (R)-3-(3-(2-(1-(6-(3-((4-cyanophenethyl)carbamoyl)piperidin-1-yl)-2-(trifluoromethyl)pyrimidin-4-yl)piperidin-4-yl)ethyl)ureido)propanoic acid]
